# Peptide text beside a SMILES is read from it.
# Assays:
# S. aureus ATCC 29213 = assay type: cell-based; settings: ATCC 29213, 18 h
# E. coli K12 = assay type: cell-based; settings: K12, 18 h
# S. aureus / E. coli = settings: cited from earlier work
Molecule,MIC (S. aureus ATCC 29213),MIC (E. coli K12),MIC S. aureus/MIC E. coli (S. aureus / E. coli)
CC[C@H](C)[C@H](NC(=O)CN)C(=O)NCC(=O)N[C@@H](CCCCN)C(=O)N[C@@H](Cc1ccccc1)C(=O)N[C@@H](CC(C)C)C(=O)N[C@@H](CCCCN)C(=O)N[C@@H](CCCCN)C(=O)N[C@@H](C)C(=O)N[C@@H](CCCCN)C(=O)N[C@@H](CCCCN)C(=O)N[C@@H](Cc1ccccc1)C(=O)NCC(=O)N[C@@H](CCCCN)C(=O)N[C@@H](C)C(=O)N[C@@H](Cc1ccccc1)C(=O)N[C@H](C(=O)N[C@@H](CCCCN)C(=O)N[C@H](C(=O)N[C@@H](CC(C)C)C(=O)N[C@@H](CCCCN)C(=O)N[C@@H](CCCCN)C(N)=O)[C@@H](C)CC)C(C)C [MSI-78] (H-GIGKFLKKAKKFGKAFVKILKK-NH2),12.5 mg/L,–,–
CC[C@H](C)[C@H](NC(=O)[C@H](CCCCN)NC(=O)CNC(=O)[C@H](C)NC(=O)[C@@H](NC(=O)[C@H](CCCCN)NC(=O)[C@H](C)NC(=O)[C@@H](NC(=O)[C@H](CCCCN)NC(=O)CNC(=O)[C@H](C)NC(=O)[C@@H](NC(=O)[C@H](CCCCN)NC(=O)[C@H](C)NC(=O)[C@@H](NC(=O)[C@H](CCCCN)NC(=O)CNC(=O)[C@H](C)NC(=O)[C@@H](NC(=O)[C@@H](N)CCCCN)[C@@H](C)CC)[C@@H](C)CC)[C@@H](C)CC)[C@@H](C)CC)[C@@H](C)CC)C(=O)N[C@@H](C)C(N)=O [MSI-103] (H-KIAGKIAKIAGKIAKIAGKIA-NH2),25 mg/L,1.6 mg/L,–
Cateslytin,–,–,>3

# Reference: PMC2868066 (Biochemistry, 2010)
